We go through 24 compounds from US20230391725A1, “MODULATORS OF THE INTEGRATED STRESS RESPONSE PATHWAY” (Evotec International GmbH, priority 2020, published 2023).

pIC50: −log10 of the molar value.

In this test the test system is ATF4. The test can be described thus: HEK-ATF4 High Content Imaging assay (prevention of Tunicamycin induced ISR). Type of test: cell-based. To be noted: Homo sapiens, Wild-type HEK293 cells, 6 h incubation, ATF4 signal ratio between nucleus and cytoplasm. The protocol: Example compounds were tested in the HEK-ATF4 High Content Imaging assay to assess their pharmacological potency to prevent Tunicamycin induced ISR. Wild-type HEK293 cells were plated in 384-well imaging assay plates at a density of 12,000 cells per well in growth medium (containing DMEM/F12, 10% FBS, 2 mM L-Glutamine, 100 U/mL Penicillin—100 μg/mL Streptomycin) and incubated at 37° C., 5% CO2. 24 h later, the medium was changed to 50 μL assay medium per well (DMEM/F12, 0.3% FBS, 2mM L-Glutamine, 100 U/mL Penicillin—100 μg/mL Streptomycin). Example compounds were serially diluted in DMSO, spotted into intermediate plates and prediluted with assay medium containing 3.3 […] Tunicamycin to give an 11-fold excess of final assay concentration. In addition to the example compound testing area, the plates also contained multiples of control wells for assay normalization purposes, wells containing Tunicamycin but no example compounds (High control), as well as wells containing neither example compound nor Tunicamycin (Low control). The assay was started by transferring 5 μL from the intermediate plate into the assay plates, followed by incubation for 6 h at 37° C., 5% CO2. Subsequently, cells were fixed (4% PFA in PBS, 20 min at r.t.) and submitted to indirect ATF4 immunofluorescence staining (primary antibody rabbit anti ATF4, clone D4B8, Cell Signaling Technologies; secondary antibody Alexa Fluor 488 goat anti-rabbit IgG (H+L), Thermofisher Scientific). Nuclei were stained using Hoechst dye (Thermofisher Scientific), and plates were imaged on an Opera Phenix High Content imaging platform equipped with 405 nm and 488 nm excitation. Finally, images were analyzed using script based algorithms. The main readout HEK-ATF4 monitored the ATF4 signal ratio between nucleus and cytoplasm. Tunicamycin induced an increase in the overall ATF4 ratio signal, which was prevented by ISR modulating example compounds. In addition, HEK-CellCount readout was derived from counting the number of stained nuclei corresponding to healthy cells. This readout served as an internal toxicity control.
The pIC50 is −log10 of the IC50, conventionally taken in molar units. For the compound `Cc1c(NC(=O)[C@H]2CC[C@H](NC(=O)COc3ccc(Cl)c(F)c3)CN2)cnn1CC(F)(F)F` [Example 26, (2R,5S)-5-[2-(4-chloro-3-fluorophenoxy)acetamido]-N-[5-methyl-1-(2,2,2-trifluoroethyl)-1H-pyrazol-4-yl]piperidine-2-carboxamide], the pIC50 is 4.82 to 5.70. With `O=C(COc1ccc(Cl)c(F)c1)N[C@H]1CC[C@H](C(=O)N[C@H]2C[C@@H](OC(F)(F)F)C2)NC1` [Example 27, (2R,5S)-5-[2-(4-chloro-3-fluorophenoxy)acetamido]-N-[(1s,3s)-3-(trifluoromethoxy)cyclobutyl]piperidine-2-carboxamide] the figure was 5.70 to 6.30; with `Cc1cc(C)cc(NC(=O)[C@H]2CC[C@H](NC(=O)COc3ccc(Cl)c(F)c3)CN2)c1` [Example 28, (2R,5S)-5-[2-(4-chloro-3-fluorophenoxy)acetamido]-N-(3,5-dimethylphenyl)piperidine-2-carboxamide], 4.82 to 5.70. For `O=C(COc1ccc(Cl)c(F)c1)N[C@H]1CC[C@H](C(=O)NCCCCC(F)(F)F)NC1` [Example 29, (2R,5S)-5-[2-(4-chloro-3-fluorophenoxy)acetamido]-N-(5,5,5-trifluoropentyl)piperidine-2-carboxamide], the pIC50 is 4.82 to 5.70. On to `O=C(COc1ccc(Cl)c(F)c1)N[C@H]1CC[C@H](C(=O)Nc2cccc(OC(F)F)c2)NC1` [Example 30, (2R,5S)-5-[2-(4-chloro-3-fluorophenoxy)acetamido]-N-[3-(difluoromethoxy)phenyl]piperidine-2-carboxamide], for which the pIC50 is 5.70 to 6.30.

`O=C(COc1ccc(Cl)c(F)c1)N[C@@H]1CC[C@@H](C(=O)Nc2cccc(C(F)(F)F)c2)NC1` [Example 31, (2S,5R)-5-[2-(4-chloro-3-fluorophenoxy)acetamido]-N-[3-(trifluoromethyl)phenyl]piperidine-2-carboxamide]: the pIC50 is 6.30 to 9.00. On to `O=C(COc1ccc(Cl)c(F)c1)N[C@H]1CC[C@H](C(=O)Nc2cc(C(F)(F)F)cc(C(F)(F)F)c2)NC1` [Example 33, (2R,5S)-N-[3,5-bis(trifluoromethyl)phenyl]-5-[2-(4-chloro-3-fluorophenoxy)acetamido]piperidine-2-carboxamide], for which the pIC50 is 5.70 to 6.30. `O=C(COc1ccc(Cl)c(F)c1)N[C@H]1CC[C@H](C(=O)Nc2ccn(C(F)(F)F)n2)NC1` [Example 34, (2R,5S)-5-[2-(4-chloro-3-fluorophenoxy)acetamido]-N-[1-(trifluoromethyl)-1H-pyrazol-3-yl]piperidine-2-carboxamide]: the pIC50 is 5.70 to 6.30.

On to `O=C(COc1ccc(Cl)c(F)c1)N[C@H]1CC[C@H](C(=O)Nc2cc(C(F)(F)F)ccc2F)NC1` [Example 35, (2R,5S)-5-[2-(4-chloro-3-fluorophenoxy)acetamido]-N-[2-fluoro-5-(trifluoromethyl)phenyl]piperidine-2-carboxamide], for which the pIC50 was 5.70 to 6.30. As to `O=C(COc1ccc(Cl)c(F)c1)N[C@H]1CC[C@H](C(=O)Nc2cccc(C(F)(F)F)c2F)NC1` [Example 36, (2R,5S)-5-[2-(4-chloro-3-fluorophenoxy)acetamido]-N-[2-fluoro-3-(trifluoromethyl)phenyl]piperidine-2-carboxamide], the pIC50 is 6.30 to 9.00. Regarding `O=C(COc1ccc(Cl)c(F)c1)N[C@H]1CC[C@H](C(=O)Nc2cccc(OC(F)(F)F)n2)NC1` [Example 37, (2R,5S)-5-[2-(4-chloro-3-fluorophenoxy)acetamido]-N-[6-(trifluoromethoxy)pyridin-2-yl]piperidine-2-carboxamide], the pIC50 was 6.30 to 9.00. Regarding `O=C(COc1ccc(Cl)c(F)c1)N[C@H]1CC[C@H](C(=O)Nc2cc(C(F)(F)F)ccn2)NC1` [Example 38, (2R,5S)-5-[2-(4-chloro-3-fluorophenoxy)acetamido]-N-[4-(trifluoromethyl)pyridin-2-yl]piperidine-2-carboxamide], the pIC50 is 5.70 to 6.30. Regarding `O=C(COc1ccc(Cl)c(F)c1)N[C@H]1CC[C@H](C(=O)Nc2ccc3c(c2)OC(F)(F)O3)NC1` [Example 39, (2R,5S)-5-[2-(4-chloro-3-fluorophenoxy)acetamido]-N-(2,2-difluoro-2H-1,3-benzodioxol-5-yl)piperidine-2-carboxamide], the negative logarithm of the IC50 (pIC50) was 6.30 to 9.00.

As for `O=C(COc1ccc(Cl)c(F)c1)N[C@H]1CC[C@H](C(=O)N2Cc3ccc(C(F)(F)F)cc3C2)NC1` [Example 40, 2-(4-chloro-3-fluorophenoxy)-N-[(3S,6R)-6-[5-(trifluoromethyl)-2,3-dihydro-1H-isoindole-2-carbonyl]piperidin-3-yl]acetamide], the pIC50 is 6.30 to 9.00. Regarding `O=C(COc1ccc(Cl)c(F)c1)N[C@H]1CC[C@H](C(=O)N2Cc3ccc(OC(F)(F)F)cc3C2)NC1` [Example 41, 2-(4-chloro-3-fluorophenoxy)-N-[(3S,6R)-6-[5-(trifluoromethoxy)-2,3-dihydro-1H-isoindole-2-carbonyl]piperidin-3-yl]acetamide], the pIC50 was 6.30 to 9.00. Next, `Cn1nc(CNC(=O)[C@H]2CC[C@H](NC(=O)COc3ccc(Cl)c(F)c3)CN2)cc1C(F)(F)F` [Example 42, (2R,5S)-5-[2-(4-chloro-3-fluorophenoxy)acetamido]-N-{[1-methyl-5-(trifluoromethyl)-1H-pyrazol-3-yl]methyl}piperidine-2-carboxamide]: 6.30 to 9.00; `O=C(COc1ccc(Cl)c(F)c1)N[C@H]1CC[C@H](C(=O)NCc2cc(C(F)(F)F)on2)NC1` [Example 43, (2R,5S)-5-[2-(4-chloro-3-fluorophenoxy)acetamido]-N-{[5-(trifluoromethyl)-1,2-oxazol-3-yl]methyl}piperidine-2-carboxamide]: 5.70 to 6.30. On to `O=C(COc1ccc(Cl)c(F)c1)N[C@H]1CC[C@H](C(=O)NCc2cc(C(F)(F)F)ccn2)NC1` [Example 44, (2R,5S)-5-[2-(4-chloro-3-fluorophenoxy)acetamido]-N-{[4-(trifluoromethyl)pyridin-2-yl]methyl}piperidine-2-carboxamide], for which the pIC50 was 4.82 to 5.70. In the case of `O=C(COc1ccc(Cl)c(F)c1)N[C@H]1CC[C@H](C(=O)N2CCc3c2cccc3C(F)(F)F)NC1` [Example 45, 2-(4-chloro-3-fluorophenoxy)-N-[(3S,6R)-6-[4-(trifluoromethyl)-2,3-dihydro-1H-indole-1-carbonyl]piperidin-3-yl]acetamide], the pIC50 is 4.82 to 5.70.

For `O=C(COc1ccc(Cl)c(F)c1)N[C@H]1CC[C@H](C(=O)Nc2ccn(C3CC3(F)F)n2)NC1` (stereo partly drawn) [Example 46, (2R,5S)-5-[2-(4-chloro-3-fluorophenoxy)acetamido]-N-[1-(2,2-difluorocyclopropyl)-1H-pyrazol-3-yl]piperidine-2-carboxamide], the pIC50 was 4.82 to 5.70.

Take `O=C(COc1ccc(Cl)c(F)c1)N[C@H]1CC[C@H](C(=O)NC2CCC(OC(F)(F)F)C2)NC1` (stereo partly drawn) [Example 47, (2R,5S)-5-[2-(4-chloro-3-fluorophenoxy)acetamido]-N-[3-(trifluoromethoxy)cyclopentyl]piperidine-2-carboxamide]: the pIC50 was 5.70 to 6.30.

Take `O=C(COc1ccc(Cl)c(F)c1)N[C@H]1CC[C@H](C(=O)Nc2ccnc(C(F)(F)F)n2)NC1` [Example 49, (2R,5S)-5-[2-(4-chloro-3-fluorophenoxy)acetamido]-N-[2-(trifluoromethyl)pyrimidin-4-yl]piperidine-2-carboxamide]: the pIC50 is 6.30 to 9.00.

With `O=C(COc1ccc(Cl)c(F)c1)N[C@H]1CC[C@H](C(=O)Nc2cncc(C(F)(F)F)n2)NC1` [Example 51, (2R,5S)-5-[2-(4-chloro-3-fluorophenoxy)acetamido]-N-[6-(trifluoromethyl)pyrazin-2-yl]piperidine-2-carboxamide], the pIC50 was 6.30 to 9.00. For `CN1C[C@@H](NC(=O)COc2ccc(Cl)c(F)c2)CC[C@@H]1C(=O)Nc1cncc(C(F)(F)F)n1` [Example 52, (2R,5S)-5-[2-(4-chloro-3-fluorophenoxy)acetamido]-1-methyl-N-[6-(trifluoromethyl)pyrazin-2-yl]piperidine-2-carboxamide], the pIC50 is 6.30 to 9.00.
